The source of these data is patent US7601686B2, “Hepatitis C virus inhibitors” (Bristol-Myers Squibb Company, priority 2005, dated 2009).

Assay [1] addresses T1, HCV NS3/4A protease complex, BMS strain (UniProt P27958, species not given/STRAIN_BMS).
T1 construct: DNA encoding the recombinant HCV NS3/4A protease complex (amino acids 1027 to 1711) for these strains [H77 and J4L6S]; fused on or other part: For the H77 and J4L6S constructs, a three-lysine solubilising tail at the NS4A C-terminus and a Ni-NTA-purifiable tag from pET21b
As to the kind of experiment: FRET peptide assay to monitor HCV NS3/4A proteolytic activity (BMS strain). The note with it: NS3/4A BMS strain, enzyme assay. Format: biochemical, Hepatitis C virus (genotype 1a). In a few lines:
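Recombinant NS3/4A complexes (aa 1027–1711) with C-terminal three-lysine tail, C1711G and C1454S, expressed in E. coli BL21(DE3) (0.5 mM IPTG, 22 h, 20°C) for H77 (1a) and J4L6S (1b); BMS strain is genotype 1a patient isolate. Purified by Ni-NTA and Superdex-S200; proteolysis monitored by FRET peptide cleavage.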

The target in assay [2] is T2, HCV NS3/4A protease complex, J4L6S strain (Hepatitis C virus genotype 1b, UniProt O92972, C1454S/C1711G).
T2 construct: recombinant HCV NS3/4A protease complex (amino acids 1027 to 1711) for these strains; inferred from pET21b vector and Ni-NTA purification; made in house; host or cells: Escherichia coli BL21 (DE3), pET21b
As to the kind of experiment: FRET peptide assay to monitor HCV NS3/4A proteolytic activity (J4L6S strain). In kind it is biochemical. From the text: Generation of Recombinant HCV NS3/4A Protease Complex
HCV NS3 protease complexes, derived from the BMS strain, H77 strain or J4L6S strain, were generated, as described below. These purified recombinant proteins were generated for use in a homogeneous assay (see below) to provide an indication of how effective compounds of the present disclosure would be in inhibiting HCV NS3 proteolytic activity.
Serum from an HCV-infected patient was obtained from Dr. T. Wright, San Francisco Hospital. An engineered full-length cDNA (compliment deoxyribonucleic acid) template of the HCV genome (BMS strain) was constructed from DNA fragments obtained by reverse transcription-PCR (RT-PCR) of serum RNA (ribonucleic acid) and using primers selected on the basis of homology between other genotype 1a strains. From the determination of the entire genome sequence, a genotype 1a was assigned to the HCV isolate according to the classification of Simmonds et al. (See P Simmonds, K A Rose, S Graham, S W Chan, F McOmish, B C Dow, E A Follett, P L Yap and H Marsden, J. Clin. Microbiol., 31(6), 1493-1503 (1993)). […]

For assay [3], the system named is human pancreatic chymotrypsin. Briefly: Specificity assay, chymotrypsin. Format: biochemical. The note with it: 2 h enzyme-inhibitor pre-incubation; read-out: Chymotrypsin activity in the specificity assays. Here is the method: The specificities of compounds of the present disclosure were determined against a variety of serine proteases: human neutrophil elastase (HNE), porcine pancreatic elastase (PPE) and human pancreatic chymotrypsin and one cysteine protease: human liver cathepsin B. In all cases a 96-well plate format protocol using colorimetric p-nitroaniline (pNA) substrate specific for each enzyme was used as described previously (PCT Patent Application No. WO 00/09543) with some modifications to the serine protease assays. All enzymes were purchased from Sigma while the substrates were from Bachem.
Each assay included a 2 h enzyme-inhibitor pre-incubation at room temperature followed by addition of substrate and hydrolysis to ˜30% conversion as measured on a Spectramax Pro microplate reader. Compound concentrations varied from 100 to 0.4 μM depending on their potency.
The final conditions for each assay were the same as those described in WO 03/099274, page 623.
The percentage of inhibition was calculated using the formula: [1−((UVinh−UVblank)/(UVctl−UVblank))]×100
A non-linear curve fit was applied to the inhibition-concentration data, and the 50% effective concentration (IC50) was calculated by the use of Excel XLfit software.

Read-outs that look alike come from different tables or passages of the source.

T1 sequence (P27958 1027-1657, stated change not applied, one chain of several): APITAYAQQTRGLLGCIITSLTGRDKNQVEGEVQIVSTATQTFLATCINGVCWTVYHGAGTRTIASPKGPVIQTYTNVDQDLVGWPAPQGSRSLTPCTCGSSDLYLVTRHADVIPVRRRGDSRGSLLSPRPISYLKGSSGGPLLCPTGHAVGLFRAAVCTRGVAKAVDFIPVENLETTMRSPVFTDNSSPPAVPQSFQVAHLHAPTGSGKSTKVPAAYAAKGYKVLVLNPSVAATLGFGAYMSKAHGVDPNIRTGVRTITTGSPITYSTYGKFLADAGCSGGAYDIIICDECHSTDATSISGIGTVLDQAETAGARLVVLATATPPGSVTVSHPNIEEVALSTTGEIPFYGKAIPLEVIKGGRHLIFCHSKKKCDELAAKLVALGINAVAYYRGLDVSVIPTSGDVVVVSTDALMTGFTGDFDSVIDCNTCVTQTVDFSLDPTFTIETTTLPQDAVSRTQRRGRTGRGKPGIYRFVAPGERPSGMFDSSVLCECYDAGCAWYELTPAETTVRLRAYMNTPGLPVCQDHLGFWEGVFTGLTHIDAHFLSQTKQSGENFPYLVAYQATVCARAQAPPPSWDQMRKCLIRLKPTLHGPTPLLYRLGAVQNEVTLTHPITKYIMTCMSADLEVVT
T2 sequence (O92972 1027-1711 C1454S/C1711G, one chain of several): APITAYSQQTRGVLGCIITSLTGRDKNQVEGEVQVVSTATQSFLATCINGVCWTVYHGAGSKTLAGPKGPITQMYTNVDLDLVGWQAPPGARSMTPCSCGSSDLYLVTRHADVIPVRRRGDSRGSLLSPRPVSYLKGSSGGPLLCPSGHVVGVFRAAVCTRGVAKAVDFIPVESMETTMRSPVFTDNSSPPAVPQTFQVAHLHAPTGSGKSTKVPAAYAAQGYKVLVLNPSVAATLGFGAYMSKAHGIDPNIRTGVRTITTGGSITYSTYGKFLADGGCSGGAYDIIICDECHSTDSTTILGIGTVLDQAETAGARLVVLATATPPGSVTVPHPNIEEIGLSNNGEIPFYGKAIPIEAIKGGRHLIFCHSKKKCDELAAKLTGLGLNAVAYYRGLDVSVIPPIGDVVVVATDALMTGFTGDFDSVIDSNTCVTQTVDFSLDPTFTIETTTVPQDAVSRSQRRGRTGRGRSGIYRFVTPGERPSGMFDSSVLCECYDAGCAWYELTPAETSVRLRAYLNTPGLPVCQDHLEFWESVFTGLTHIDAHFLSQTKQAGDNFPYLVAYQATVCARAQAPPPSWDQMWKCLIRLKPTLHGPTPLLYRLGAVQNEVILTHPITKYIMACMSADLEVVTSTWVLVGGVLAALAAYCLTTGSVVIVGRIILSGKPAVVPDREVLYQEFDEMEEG

On to `C=CC1CC1(NC(=O)[C@@H]1C[C@@H](NC(=O)c2cc(-c3ccccc3)nc3ccccc23)CN1C(=O)[C@@H](NC(=O)CC1CC1)C(C)(C)C)C(=O)NS(=O)(=O)C1CC1` (stereo partly shown) [Compound 9], for which the IC50 in assay [1] was 0.047 µM; in assay [1] (read-out: IC 50 Range), less than 0.15 µM; in assay [2], 0.03 µM; in assay [3], 65 µM.
